Test results published in US9579325B2, “Modulators of TNF-α signaling” (Genzyme Corporation, priority 2000, dated 2017).

These compounds were tested on L929 cells (assay: TNF High Throughput Screen (TNF-α driven apoptosis assay)). Details: Mus musculus, compound at 1 μM, human TNF-α + actinomycin D, read-out: TNFα % Inh. @ 1 μM.
Format: cell-based, mouse
Excerpt: Description of Table V: The results shown in Table V were obtained using the TNF-α assays performed as described in the protocols entitled “Method for TNF High Throughput Screen” and “Method for VCAM High Throughput Screen”, which are detailed below. These assays measure a cellular response to TNF-α stimulation, and the data published in the table are expressed as percentage inhibitions. Percentage inhibition is computed on a scale of 0 to 100% where 0 percent inhibition means the compound has no effect in the assay (the response is indistinguishable from TNF-α treatment alone), and 100% inhibition means that when the compound is present at the stated concentration, the response in the assay is the same as if TNF-α were not added. These two assays measure two different outcomes of TNF-α treatment, cell death and Vascular Cell Adhesion Molecule (VCAM) expression, and capture two of TNF-α's many biological effects. TNF-α induced apoptosis is a mechanism by which TNF-α production during immune/inflammatory responses can lead to direct cellular and tissue damage. TNF-α VCAM expression in endothelial cells is a response that allows leukocytes to leave the blood and enter a site of immune/inflammatory response. Both of these activities could lead to pathology in immune/inflammatory diseases. In the first column of the table, the percentage inhibition of the TNF-α driven apoptosis assay when the compounds are tested at 1 μM concentration is presented. The second column in the table lists the IC50 for the compound, a standard measure using a dilution series in the assay, and fitting a sigmoidal curve to the resulting dose-response curve. The IC50 is the concentration (derived analytically from the sigmoidal function) at which the compound would inhibit 50% of the response in the assay. The third and fourth column list the corresponding analysis for the TNF-α driven VCAM assay. In Table VI, data corresponding to the data in column 1 of Table V is shown, with human cells replacing the mouse cells used in the high throughput screen. […] As a consequence, the compounds will have use in treating more than one TNF-α mediated condition, and may be selected according to the manner in which the condition manifests. This corresponds to the use of these compounds in the treatment of human disease.
TNF High Throughput Screen.
• 1. Plate 4×10^4 L929 cells in 100 μl of complete EMEM in Costar 96 well plates in PM. • 2. The next day, pretreat with compound, inhibitor and control vehicle for 2 hours. • 3. After 2 hours pretreatment, add 10 μl 5 ng/ml human TNF-α and actinomycin D (40 μg/ml final concentration). • 4. Incubate overnight. • 5. In AM, remove supernatant. • 6. Wash on a plate washer (0.9% NaCl). • 7. Add 100 μl Crystal Violet 0.1% in 20% ETOH. • 8. Incubate at RT for 10 minutes. • 9. Wash on plate washer. • 10. Air dry wells at 37° C. • 11. Add 100 μl of methanol to each well. • 12. Shake plates on orbital shaker and read at 595 nm on plate reader. VCAM High Throughput Screen: Protocol: • 1. Plate Primary human umbilical vein endothelial cells at 1.8×10^4 cells/well in a 96-well tissue culture plate. • 2. Return Plates to 37° C. incubator for 48-72 hours before assay. • 3. On assay day, aspirate wells and add 1804, of endothelial growth cell medium (EGM) to each well. • 4. Add Compound to each well. • 5. Shake plates for 3 minutes. • 6. Incubate plate for 1 hour at 37° C. • 7. Add Tumor Necrosis Factor (TNF) at 1.0 ng/ml final concentration. • 8. Shake plates for 3 minutes. • 9. Incubate plate for 2 hours at 37° C. • 10. Remove plate from incubator and wash plate 3 times with phosphate buffered saline (PBS) using a plate washer. • 11. Add anti-VCAM antibody at 0.5 μg/ml final concentration. • 12. Incubate at 4° C. overnight. • 13. Wash 3 times with PBS on plate washer. • 14. Add goat anti-mouse horseradish peroxidase conjugate. • 15. Incubate at room temperature for one hour. • 16. Wash 3 times with PBS on plate washer. • 17. […]

Compared with `N#Cc1cccc(C(C(=O)NCC(c2ccccc2)c2ccccc2)N(CCc2c[nH]cn2)C(=O)CCCc2c[nH]c3ccccc23)c1` (stereo not shown) [Compound 84], `N#Cc1cccc(C(C(=O)NCC(c2ccccc2)c2ccccc2)N(CCc2c[nH]cn2)C(=O)c2cnc3ccccc3n2)c1` (stereo not shown) [Compound 80] is higher in inhibition at 1 µM: 52% for the first, 53% for the second.

Compared with `COc1ccc(CCNC(=O)C(c2cccc(C#N)c2)N(CCc2c[nH]cn2)C(=O)c2cccn2C)cc1` (stereo not shown) [Compound 71], `COc1ccc(CCNC(=O)C(c2cccc(C#N)c2)N(CCc2c[nH]cn2)C(=O)C(C)C)cc1` (stereo not shown) [Compound 92] is lower in inhibition at 1 µM: 57% for the first, 52% for the second.

Compared with `COc1ccc(CCNC(=O)C(c2cccc(C#N)c2)N(CCc2c[nH]cn2)C(=O)Cc2c[nH]c3ccccc23)cc1` (stereo not shown) [Compound 77], `COc1ccc(CCNC(=O)C(c2cccc(C#N)c2)N(CCc2c[nH]cn2)C(=O)Cc2c(C)[nH]c3ccccc23)cc1` (stereo not shown) [Compound 75] is higher in inhibition at 1 µM: 54% for the first, 67% for the second.

Going from `N#Cc1cccc(C(C(=O)NCC(c2ccccc2)c2ccccc2)N(CCc2c[nH]cn2)C(=O)c2c[nH]nc2N)c1` (stereo not shown) [Compound 81] to `COc1cccc(C(=O)N(CCc2c[nH]cn2)C(C(=O)NCC(c2ccccc2)c2ccccc2)c2cccc(C#N)c2)c1` (stereo not shown) [Compound 86], the inhibition at 1 µM rises from 50% to 53%.

Compared with `N#Cc1cccc(C(C(=O)NCCC(c2ccccc2)c2ccccc2)N(CCc2c[nH]cn2)C(=O)c2ccccc2C(=O)c2ccc(Cl)cc2)c1` (stereo not shown) [Compound 91], `N#Cc1cccc(C(C(=O)NC(Cc2ccccc2)c2ccccc2)N(CCc2c[nH]cn2)C(=O)c2ccccc2C(=O)c2ccc(Cl)cc2)c1` (stereo not shown) [Compound 64] is lower in inhibition at 1 µM: 71% for the first, 63% for the second.

Compared with `O=C(c1ccccc1)c1ccccc1C(=O)N(CCc1c[nH]cn1)C(C(=O)NCC(c1ccccc1)c1ccccc1)C(c1ccccc1)c1ccccc1` (stereo not shown) [Compound 62], `O=C(c1ccc(Cl)cc1)c1ccccc1C(=O)N(CCCn1ccnc1)C(C(=O)NCC(c1ccccc1)c1ccccc1)c1ccccc1` (stereo not shown) [Compound 61] is lower in inhibition at 1 µM: 59% for the first, 51% for the second.

First: N#Cc1cccc(C(C(=O)NC(c2ccccc2)c2ccccc2)N(CCc2c[nH]cn2)C(=O)C(O)c2ccccc2)c1 (stereo not shown) [Compound 87]
Second: N#Cc1cccc(C(C(=O)NCCC(c2ccccc2)c2ccccc2)N(CCc2c[nH]cn2)C(=O)c2cccc3ccccc23)c1 (stereo not shown) [Compound 68]
The inhibition at 1 µM of the first is lower: 50% for the first, 57% for the second.

In the case of `COc1ccc(CCNC(=O)C(c2cccc(C#N)c2)N(CCc2c[nH]cn2)C(=O)CCC(C)=O)cc1` (stereo not shown) [Compound 73], the inhibition at 1 µM is reported as 76%.

Same assay, conditions: Mus musculus, human TNF-α + actinomycin D, read-out: TNFα IC50

Going from `CN(C)CCN(C(=O)c1ccccc1C(=O)c1ccccc1)C(C(=O)NCC(c1ccccc1)c1ccccc1)c1cccc(C#N)c1` (stereo not shown) [Compound 9] to `Cn1cncc1CCN(C(=O)c1ccccc1C(=O)c1ccccc1)C(C(=O)NCC(c1ccccc1)c1ccccc1)c1cccc(C#N)c1` (stereo not shown) [Compound 14], the IC50 rises from 496 nM to 1790 nM (3.6-fold).

Going from `N#Cc1cccc(C(C(=O)NCC(c2ccccc2)c2ccccc2)N(CCCc2c[nH]cn2)C(=O)c2ccccc2C(=O)c2ccccc2)c1` (stereo not shown) [Compound 24] to `Cc1cccc(C(C(=O)NCC(c2ccccc2)c2ccccc2)N(CCc2c[nH]cn2)C(=O)c2ccccc2C(=O)c2ccccc2)c1` (stereo not shown) [Compound 7], the IC50 rises from 1030 nM to 4010 nM (3.9-fold). The first is the more potent here.

Going from `Nc1nc(-c2ccccn2)nc(-n2nc(-c3ccc(Cl)cc3)nc2Cc2ccccc2)n1` [Compound 133, 4-[5-Benzyl-3-(4-chloro-phenyl)-[1,2,4]triazol-1-yl]-6-pyridin-2-yl-[1,3,5]triazin-2-ylamine] to `COc1c(Sc2ccc(Cl)cc2)c(C)nn1-c1nccc(-c2ccccn2)n1` [Compound 148, 2-[4-(4-Chloro-phenylsulfanyl)-5-methoxy-3-methyl-pyrazol-1-yl]-4-pyridin-2-yl-pyrimidine], the IC50 rises from 19500 nM to 32100 nM (1.6-fold). The first is the more potent here.

Going from `N#Cc1cccc(C(C(=O)NCC(c2ccccc2)c2ccccn2)N(CCc2c[nH]cn2)C(=O)c2ccccc2C(=O)c2ccccc2)c1` (stereo not shown) [Compound 39] to `N#Cc1cccc(C(C(=O)NCC(c2ccccc2)c2ccccc2)N(CCc2c[nH]cn2)C(=O)c2ccccc2C(=O)c2ccccn2)c1` (stereo not shown) [Compound 15], the IC50 falls from 1320 nM to 386 nM (3.4-fold). The second is the more potent here.

`O=C(c1ccccc1)c1ccccc1C(=O)N(CCc1c[nH]cn1)C(Cc1ccc(Cl)cc1)C(=O)NCC(c1ccccc1)c1ccccc1` (stereo not shown) [Compound 32] and `O=C(c1ccccc1)c1ccccc1C(=O)N(CCc1c[nH]cn1)C(Cc1cccc(Cl)c1)C(=O)NCC(c1ccccc1)c1ccccc1` (stereo not shown) [Compound 31] are within 1.5-fold of each other in IC50: 2330 nM for the first, 3350 nM for the second.

First: N#Cc1cccc(C(C(=O)NCC(c2ccccc2)C2CCCC2)N(CCc2c[nH]cn2)C(=O)c2ccccc2C(=O)c2ccccc2)c1 (stereo not shown) [Compound 25]
Second: N#Cc1cccc(C(C(=O)NCC(C2CCCCC2)C2CCCCC2)N(CCc2c[nH]cn2)C(=O)c2ccccc2C(=O)c2ccccc2)c1 (stereo not shown) [Compound 23]
The IC50 of the first is 1.6-fold lower: 1580 nM for the first, 2580 nM for the second.

Compared with `COc1ccc(C(=O)c2ccccc2C(=O)N(CCc2c[nH]cn2)C(C(=O)NCC(c2ccccc2)c2ccccc2)c2cccc(C#N)c2)cc1` (stereo not shown) [Compound 19], `N#Cc1ccc(C(C(=O)NCC(c2ccccc2)c2ccccc2)N(CCc2c[nH]cn2)C(=O)c2ccccc2C(=O)c2ccccc2)cc1` (stereo not shown) [Compound 51] is 7.8-fold higher in IC50: 457 nM for the first, 3560 nM for the second. The first is the more potent here.

First: Cc1ccc(C(C(=O)NCC(c2ccccc2)c2ccccc2)N(CCc2c[nH]cn2)C(=O)c2ccccc2C(=O)c2ccccc2)cc1 (stereo not shown) [Compound 8]
Second: Cc1ccccc1C(C(=O)NCC(c1ccccc1)c1ccccc1)N(CCc1c[nH]cn1)C(=O)c1ccccc1C(=O)c1ccccc1 (stereo not shown) [Compound 6]
The IC50 of the first is 1.5-fold higher: 1620 nM for the first, 1060 nM for the second.

`O=C(c1ccccc1)c1ccccc1C(=O)N(CCc1c[nH]cn1)C(Cc1ccccc1C(F)(F)F)C(=O)NCC(c1ccccc1)c1ccccc1` (stereo not shown) [Compound 27] and `COc1ccccc1CC(C(=O)NCC(c1ccccc1)c1ccccc1)N(CCc1c[nH]cn1)C(=O)c1ccccc1C(=O)c1ccccc1` (stereo not shown) [Compound 33] are within 1.5-fold of each other in IC50: 2720 nM for the first, 2350 nM for the second.

Going from `O=C(c1ccccc1)c1ccccc1C(=O)N(CCc1c[nH]cn1)C(C(=O)NCC(c1ccccc1)c1ccccc1)c1cccc(C(F)(F)F)c1` (stereo not shown) [Compound 17] to `O=C(c1ccccc1)c1ccccc1C(=O)N(CCc1c[nH]cn1)C(C(=O)NCC(c1ccccc1)c1ccccc1)c1ccc(-c2ccccc2)o1` (stereo not shown) [Compound 52], the IC50 rises from 1500 nM to 3490 nM (2.3-fold). The first is the more potent here.

First: CC1=NN(c2nccc(-c3ccccn3)n2)C(=O)C1Sc1ccc(Cl)cc1 (stereo not shown) [Compound 147, 4-(4-Chloro-phenylsulfanyl)-5-methyl-2-(4-pyridin-2-yl-pyrimidin-2-yl)-2,4-dihydro-pyrazol-3-one]
Second: Cc1nn(-c2nccc(-c3ccccn3)n2)c(C)c1Oc1ccc(C(C)C)cc1 [Compound 97, 2-[4-(4-Isopropyl-phenoxy)-3,5-dimethyl-pyrazol-1-yl]-4-pyridin-2-yl-pyrimidine]
The IC50 of the first is 1.8-fold higher: 734 nM for the first, 397 nM for the second.

In the case of `N#Cc1cccc(C(C(=O)NCC(c2ccccc2)c2ccccc2)N(CCc2c[nH]cn2)C(=O)c2ccccc2-c2cccs2)c1` (stereo not shown) [Compound 29], the IC50 is reported as 3720 nM.

Same assay, conditions: human TNF-α + actinomycin D, read-out: TNFα IC50

First: Cc1nn(-c2nc(N)nc(-c3ccccn3)n2)c(C)c1CCCc1ccccc1 [Compound 144, 4-[3,5-Dimethyl-4-(3-phenyl-propyl)-pyrazol-1-yl]-6-pyridin-2-yl-[1,3,5]triazin-2-lyamine]
Second: O=C(c1ccccc1)c1ccccc1C(=O)N(CCc1c[nH]cn1)[C@H](Cc1ccccc1)C(=O)NCC(c1ccccc1)c1ccccc1 [Compound 47, 2-Benzoyl-N-[(1′R)-1′(2,2′-diphenyl-ethylcarbamoyl)-2′-phenyl-ethyl]-N-[2-(1H-imidazol-4-yl)-ethyl]-benzamide]
The IC50 of the first is 370-fold lower: 15 nM for the first, 5580 nM for the second. The first is the more potent here.
